Measured values: patent US9896457B2, “Microbial product having antifungal activity” (OP BIO FACTORY CO., LTD., priority 2013, dated 2018)

Tests used:
Aspergillus spp. = assay: Antifungal agent sensitivity test, MIC by trace liquid dilution method (yeast-like fungi FP 'Eiken'); type: cell-based; conditions: numeric MIC (μg/mL) only in FIG. 2
Method: (§1) Minimum inhibitory concentration (MIC) was measured by the trace liquid dilution method. The measurement was performed using yeast-like fungi FP ‘Eiken’ (Eiken Chemical Co., Ltd.) and according to the manual of the product.

Candida spp. = assay: as above; type: cell-based; conditions: numeric MIC (μg/mL) only in FIG. 2
Method: as §1

CC=C(Cc1ccccc1)C12CC(O)CCN1O2 (centres unmarked) was tested, and the “antifungal activity (MIC), result in words” value (Aspergillus spp.) was “good activity” and the “antifungal activity (MIC), result in words” value (Candida spp.) was “good activity”.
